From paper PMC9814548, “Chemoenzymatic synthesis of 3-ethyl-2,5-dimethylpyrazine by L-threonine 3-dehydrogenase and 2-amino-3-ketobutyrate CoA ligase/L-threonine aldolase” (Communications Chemistry, 2021)

Target: T1, CnKBL (Cupriavidus necator, UniProt Q0K313, H138F)
T1 construct: gene kbl; gene cloned in pET-28a (NcoI/XhoI), E. coli BL21(DE3), Ni-Sepharose and gel filtration; dimer; PLP on K246
Assay: threonine aldolase activity, coupled alcohol dehydrogenase assay
Format: biochemical
Conditions: TA activity not detectable

T1 sequence (Q0K313 entry or part of it H138F): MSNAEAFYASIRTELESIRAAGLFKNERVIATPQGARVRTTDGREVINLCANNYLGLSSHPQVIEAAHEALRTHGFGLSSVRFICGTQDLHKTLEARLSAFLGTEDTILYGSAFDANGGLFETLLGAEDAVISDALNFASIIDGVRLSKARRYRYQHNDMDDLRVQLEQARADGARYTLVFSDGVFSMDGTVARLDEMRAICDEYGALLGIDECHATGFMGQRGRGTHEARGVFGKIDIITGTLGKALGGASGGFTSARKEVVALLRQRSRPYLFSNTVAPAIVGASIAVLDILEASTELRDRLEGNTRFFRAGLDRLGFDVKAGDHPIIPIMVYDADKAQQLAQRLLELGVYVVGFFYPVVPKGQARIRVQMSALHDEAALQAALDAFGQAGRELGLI

C[C@@H](O)[C@H](N)C(=O)O [L-Thr]
threonine aldolase activity, coupled alcohol dehydrogenase assay: TA activity of the H138F variant decreased to an undetectable level compared with CnKBL(WT)
